Structures are written as SMILES. ≈ marks a conversion by molar mass, not a printed value. Where “and” joins values, the source holds several entries; their conditions need not be identical. Identical values can stand only once.

Common to all, as to assay: ≥ marks a high value that may be exact or a test limit, other limits are often not marked, values filed in µg/mL are converted to µM
The subject of assay [1] is Staphylococcus aureus NCTC 10788.
In assay [2] the test system is Pseudomonas aeruginosa ATCC 27853.
Assay [3] relates to Staphylococcus aureus ATCC 12493.
In assay [4] the test system is Candida albicans NCPF 1467.
For assay [5], the system named is Escherichia coli NCTC 10418.
In assay [6] the test system is Enterococcus faecalis NCTC 12697.
Assay [7] deals with Klebsiella pneumoniae ATCC 13866.
Assay [8] has as its system Staphylococcus aureus HNCMO 112011.
Assay [9] has as its system Acinetobacter baumannii ATCC 17978.
Assay [10] has as its system Escherichia coli ATCC 8739.
Assay [11] relates to Escherichia coli NBRC 3972.
The test system of assay [12] is Pseudomonas putida NBRC 100650.
Assay [13] has as its system Micrococcus luteus NBRC 3333.
For assay [14], the system named is Staphylococcus epidermidis NBRC 12993.
Assay [15] deals with Candida viswanathii NBRC 10321.
The test system of assay [16] is Aspergillus oryzae NBRC 100959.
Assay [17] relates to Lacticaseibacillus rhamnosus 1.0911.
Assay [18] concerns Lactiplantibacillus plantarum 8014.
Assay [19] has as its system Staphylococcus epidermidis ATCC 12228.
The subject of assay [20] is Escherichia coli ATCC 25922.
Assay [21] has as its system Escherichia coli UB1005.
The test system of assay [22] is Lacticaseibacillus rhamnosus 7469.
In assay [23] the test system is Staphylococcus aureus ATCC 43300.
Assay [24] relates to Lacticaseibacillus rhamnosus 1.0925.
Assay [25] relates to Lacticaseibacillus rhamnosus 1.0386.
For assay [26], the system named is Staphylococcus aureus ATCC 29213.
In assay [27] the test system is Lacticaseibacillus rhamnosus 1.0385.
Assay [28] deals with Streptococcus pyogenes ATCC 19615.
The test system of assay [29] is Streptococcus salivarius.
In assay [30] the test system is Candida glabrata.
Assay [31] relates to Candida parapsilosis ATCC 22019.
The subject of assay [32] is Listeria monocytogenes.
In assay [33] the test system is Klebsiella pneumoniae.
The test system of assay [34] is Staphylococcus aureus MR.
The test system of assay [35] is Streptococcus equi.
The test system of assay [36] is Streptococcus agalactiae ATCC 12386.
The subject of assay [37] is Streptococcus oralis.
Assay [38] relates to Candida krusei ATCC 6258.
Assay [39] relates to Streptococcus dysgalactiae.
Assay [40] has as its system Candida albicans.
In assay [41] the test system is Streptococcus lutetiensis.
The test system of assay [42] is Streptococcus pneumoniae ATCC 49619.
Assay [43] has as its system Pasteurella multocida.
Assay [44] relates to Streptococcus mutans.

As a reminder, the MIC is the lowest concentration that inhibits growth of the organism. For `CC[C@H](C)[C@H](NC(=O)[C@@H](NC(=O)CNC(=O)[C@@H]1CCCN1C(=O)[C@@H](NC(=O)[C@@H](NC(=O)[C@H](CC(N)=O)NC(=O)[C@H](C)NC(=O)[C@H](C)NC(=O)[C@@H](NC(=O)[C@H](CCCCN)NC(=O)[C@H](CC(C)C)NC(=O)[C@@H](NC(=O)CNC(=O)[C@@H]1CCCN1C(=O)[C@H](CC(C)C)NC(=O)[C@@H](N)Cc1ccccc1)[C@@H](C)CC)C(C)C)C(C)C)C(C)C)C(C)C)C(=O)O` [FLPGILKVAANVVPGVI], the minimum inhibitory concentration (MIC) in [1] was not below 512 µM; in [2] it was more than 512 µM; in assay [3], not below 512 µM; in assay [4], not below 512 µM; in assay [5] it was not below 512 µM; in assay [6], not below 512 µM.
Regarding `CC[C@H](C)[C@H](NC(=O)CN)C(=O)N[C@@H](Cc1cnc[nH]1)C(=O)NCC(=O)N[C@H](C(=O)N[C@H](C(=O)N[C@@H](CCCN=C(N)N)C(=O)N[C@@H](CO)C(=O)N[C@@H](Cc1ccccc1)C(=O)N[C@@H](CCSC)C(=O)N[C@@H](CCCN=C(N)N)C(=O)N[C@@H](CCSC)C(=O)N[C@@H](CC(C)C)C(=O)NCC(=O)N[C@@H](Cc1cnc[nH]1)C(=O)N[C@@H](CC(C)C)C(=O)NCC(=O)O)C(C)C)C(C)C` [GIHGVVRSFMRMLGHLG], the figures for the MIC in [2] and in [7] were 4.28 µM (≈ 8 µg/mL) and not below 34.3 µM, respectively.
For the compound `CC[C@H](C)[C@H](NC(=O)[C@H](CCCCN)NC(=O)[C@H](CCCCN)NC(=O)[C@H](C)NC(=O)[C@H](CC(C)C)NC(=O)[C@H](C)NC(=O)[C@H](C)NC(=O)[C@H](CC(C)C)NC(=O)[C@H](C)NC(=O)[C@H](CCCCN)NC(=O)[C@H](CCCN=C(N)N)NC(=O)[C@H](CCCN=C(N)N)NC(=O)[C@H](CCCN=C(N)N)NC(=O)[C@H](CS)NC(=O)[C@H](Cc1ccc(O)cc1)NC(=O)[C@H](CC(C)C)NC(=O)[C@@H]1CCCN1C(=O)[C@H](CCCN=C(N)N)NC(=O)[C@H](CCCN=C(N)N)NC(=O)[C@H](CS)NC(=O)[C@H](CCC(N)=O)NC(=O)[C@@H](N)CCC(N)=O)C(=O)N[C@@H](CC(C)C)C(=O)O` [QQCRRPLYCRRRKALAALAKKIL], the MIC in assay [8], in assay [9] and in [10] was 3.1 µM (≈ 8.54 µg/mL) each time.
For `CC[C@H](C)[C@H](NC(=O)[C@H](CCCCN)NC(=O)[C@@H](N)CCCN=C(N)N)C(=O)N[C@@H](CCCCN)C(=O)N[C@H](C(=O)N[C@@H](Cc1ccc(O)cc1)C(=O)N[C@@H](CC(C)C)C(=O)N1CCC[C@H]1C(=O)N[C@@H](CCCN=C(N)N)C(=O)N[C@@H](CCSC)C(=O)N[C@@H](CCCCN)C(=O)O)C(C)C` [RKIKVYLPRMK], the MIC in assay [11] is 8.73 µM (≈ 12.5 µg/mL); in [12] it was 17.5 µM (≈ 25 µg/mL); in [13], 17.5 µM (≈ 25 µg/mL); in [14], not below 69.8 µM; in assay [15], 17.5 µM (≈ 25 µg/mL); in assay [16] it was 17.5 µM (≈ 25 µg/mL).
As for `NC(=O)CC[C@H](NC(=O)[C@H](Cc1c[nH]c2ccccc12)NC(=O)[C@H](Cc1c[nH]c2ccccc12)NC(=O)[C@H](Cc1c[nH]c2ccccc12)NC(=O)[C@H](CCC(N)=O)NC(=O)[C@H](Cc1c[nH]c2ccccc12)NC(=O)[C@H](CCCN=C(N)N)NC(=O)[C@@H](N)CCCN=C(N)N)C(=O)N[C@@H](Cc1c[nH]c2ccccc12)C(=O)N[C@@H](CCCN=C(N)N)C(=O)N[C@@H](CCCN=C(N)N)C(N)=O` [RRWQWWWQWRR], the MIC in assay [2] was 4 µM (≈ 7.32 µg/mL); in [17] it was not below 64 µM; in assay [18], 8 µM (≈ 14.6 µg/mL); in assay [19], 4 µM (≈ 7.32 µg/mL); in assay [20], 4 µM (≈ 7.32 µg/mL); in assay [21], 4 µM (≈ 7.32 µg/mL). For the same compound, the MIC in assay [22] was not below 64 µM; in assay [23], 4 µM (≈ 7.32 µg/mL); in assay [24], not below 64 µM; in assay [25], 16 µM (≈ 29.3 µg/mL); in [26] it was 4 µM (≈ 7.32 µg/mL); in [27], not below 64 µM.
Regarding `CC[C@H](C)[C@H](NC(=O)CNC(=O)[C@H](CC(=O)O)NC(=O)CNC(=O)[C@H](CC(C)C)NC(=O)[C@H](CCCN=C(N)N)NC(=O)[C@H](CCCCN)NC(=O)[C@H](CC(C)C)NC(=O)[C@H](CC(C)C)NC(=O)[C@H](CO)NC(=O)[C@H](CCCN=C(N)N)NC(=O)[C@H](CCCN=C(N)N)NC(=O)[C@H](CCCCN)NC(=O)[C@@H](NC(=O)[C@H](CCCCN)NC(=O)[C@@H](N)CO)[C@@H](C)O)C(=O)N[C@@H](CCCN=C(N)N)C(=O)NCC(=O)N[C@@H](Cc1ccccc1)C(=O)N[C@@H](Cc1c[nH]c2ccccc12)C(=O)N[C@@H](CC(N)=O)C(=O)NCC(=O)N[C@@H](Cc1ccccc1)C(=O)N[C@@H](CCCN=C(N)N)C(=O)NCC(=O)N[C@@H](CCCN=C(N)N)C(=O)N[C@@H](CCCCN)C(=O)O` [SKTKRRSLLKRLGDGIRGFWNGFRGRK], the minimal inhibitory concentration (MIC) in assay [28] was 20.1 µM (≈ 64 µg/mL); in [29], 10 µM (≈ 32 µg/mL); in assay [2] it was more than 20.1 µM; in [30], 20.1 µM (≈ 64 µg/mL); in assay [31], 10 µM (≈ 32 µg/mL); in [32] it was 20.1 µM (≈ 64 µg/mL). Also, the MIC in assay [33] was more than 20.1 µM; in [34], 10 µM (≈ 32 µg/mL); in assay [35], 20.1 µM (≈ 64 µg/mL); in assay [36], 20.1 µM (≈ 64 µg/mL); in [37], 20.1 µM (≈ 64 µg/mL); in assay [38], 20.1 µM (≈ 64 µg/mL). In addition, the MIC in [39] was 20.1 µM (≈ 64 µg/mL); in assay [40], more than 20.1 µM; in assay [41], 20.1 µM (≈ 64 µg/mL); in assay [42], 20.1 µM (≈ 64 µg/mL); in [43] it was 20.1 µM (≈ 64 µg/mL); in assay [26], 10 µM and 6.27 µM. For the same compound, the MIC in assay [44] was found to be 20.1 µM (≈ 64 µg/mL).

Values taken from DBAASP.
